Patent US6723695B1, “CTL epitopes from EBV” (priority 1997, dated 2004)
“Also recorded” adds a separate entry of the source. Read-outs that look alike come from different tables or passages of the source.

Experiments:
[1] = system: peptide-sensitized HLA-matched PHA blasts; type: cell-based, human
[2] = system: peptide-sensitized autologous PHA blasts
[3] = system: gp350- and gp85-specific CTL response; details: mouse, in vivo, sc
[4] = molecular target: T1, HLA A2 on T2 cells (Homo sapiens, UniProt P04439, D140Y/D185E/D98H/E176V/E277Q/G131W/G231S/I119V/I121R/I166T/I218V/L300P/L318F/N151K/N90K/P208A/P217A/Q86G/Q94H/R138H/R169H/T345S); assay: MHC stabilisation assay on T2 cells (HLA A2 expression by FACS); type: cell-based; details: peptide 200 μg/ml, 26° C. 14-16h then 37° C. 2-3h
T1 construct: using HLA A2-positive T2 cells; endogenous in cells; host or cells: T2 (174xCEM.T2), TAP-negative B x T hybrid cell line
Procedure: FIG. 1:MHC stablization analysis on T2 cells using potential HLA A2 binding peptides within LMP1. T2 cells were initially incubated with 200 μl of each of the peptides (200 μg/ml) for 14-16h at 26° C. followed by incubation at 37° C. for 2-3h. HLA A2 expression on these cells was analysed by FACS using the BB7.2 antibody. The dotted line indicates the background mean fluorescence intensity for HIA A2 on T2 cells without any peptide. The LMP1 peptides showing significant stablization of HLA A2 molecules on T2 cells are indicated by arrows.
FIG. 6:Effect of variant LMP1 peptides on the HLA A2 binding (panel A) and CTL recognition (panel B). For HLA A2 binding analysis on T2 cells were initially incubated with 200 μl of each of the peptides (200 μg/ml) for 14-16h at 26° C. followed by incubation at 37° C. for 2-3h. HLA A2 expression on these cells was analysed by FACS using BB7.2 antibody (panel A). The dotted line indicates the background mean fluorescence intensity for HLA A2 on T2 cells without any peptide. […] Results are expressed as percent specific lysis. […]
FIG. 8:MHC stabilization analysis on T2 cells using potential HLA A2 binding peptides within gp85 (panel A) and gp350 (panel B). […] HLA A2 expression on these cells was analysed by FACS using the BB7.2 antibody. The dotted line indicates the background mean fluorescence intensity for HLA A2 on T2 cells without any peptide. […]

[5] = system: CTL clone SB7; assay: LMP1-specific CTL clone SB7, peptide recognition / 51Cr-release assay; type: cell-based, human; details: donor; for recognition of peptide by CTL clone SB7: effector:target 4:1
[6] = system: peptide-sensitized autologous PHA blasts; assay: Polyclonal CTLs stimulated with LMP1 peptides, 51Cr-release assay; type: cell-based, human; details: HLA A2-positive donor; effector:target 20:1; targets 1 μg/ml peptide
[7] = system: EBV-positive lymphomas; details: cited from earlier work

Molecule | ex vivo CTL recognition of peptide-sensitized targets [1] | reactivity of polyclonal CTL effectors against peptide-sensitized PHA blasts [2] | CTL response in splenocytes [3] | lysis of targets by CTLs activated from splenocytes of immunized mice [3] | further results
LMIIPLINV | recognised | recognized | – | – | –
SLVIVTTFV | strong reactivity | strong reactivity | induced strong CTL response | variable in vitro CTL lysis | –
TLFIGSHVV | – | recognized | induced strong CTL response | consistently showed strong lysis | ex vivo CTL response during acute infection [1]: not detectable
VLQWASLAV | strong reactivity; also recorded: recognised | strong reactivity | induced strong CTL response | variable in vitro CTL lysis | –
YFLEILWGL | – | – | – | – | expression of HLA A2 on T2 cells [4]: significantly increased; recognition of peptide by CTL clone SB7 [5]: no CTL activity
YLLEILWRL (Epstein Barr Virus) | – | – | – | – | expression of HLA A2 on T2 cells [4]: significantly increased; recognition of peptide by CTL clone SB7 [5]: efficiently recognized
YLQQNWWTL (Epstein Barr Virus) [LMP1 residues 159-167] | – | – | – | – | activation of polyclonal CTLs (specific lysis) [6]: significant activation of polyclonal CTLs; also recorded: weaker response; isolation of peptide-specific CTL clones [5]: No CTL clones specific; ex vivo CTL recognition of peptide-sensitized targets ([1]; all three IM patients, peptide 1 μg/ml): clear recognition
gp350: highly purified EBV structural glycoprotein gp350, subunit preparation (recombinant and affinity purified) (protein, UniProt P03200 1-907, looked up) Envelope glycoprotein GP350: MEAALLVCQYTIQSLIHLTGEDPGFFNVEIPEFPFYPTCNVCTADVNVTINFDVGGKKHQLDLDFGQLTPHTKAVYQPRGAFGGSENATNLFLLELLGAGELALTMRSKKLPINVTTGEEQQVSLESVDVYFQDVFGTMWCHHAEMQNPVYLIPETVPYIKWDNCNSTNITAVVRAQGLDVTLPLSLPTSAQDSNFSVKTEMLGNEIDIECIMEDGEISQVLPGDNKFNITCSGYESHVPSGGILTSTSPVATPIPGTGYAYSLRLTPRPVSRFLGNNSILYVFYSGNGPKASGGDYCIQSNIVFSDEIPASQDMPTNTTDITYVGDNATYSVPMVTSEDANSPNVTVTAFWAWPNNTETDFKCKWTLTSGTPSGCENISGAFASNRTFDITVSGLGTAPKTLIITRTATNATTTTHKVIFSKAPESTTTSPTLNTTGFADPNTTTGLPSSTHVPTNLTAPASTGPTVSTADVTSPTPAGTTSGASPVTPSPSPWDNGTESKAPDMTSSTSPVTTPTPNATSPTPAVTTPTPNATSPTPAVTTPTPNATSPTLGKTSPTSAVTTPTPNATSPTLGKTSPTSAVTTPTPNATSPTLGKTSPTSAVTTPTPNATGPTVGETSPQANATNHTLGGTSPTPVVTSQPKNATSAVTTGQHNITSSSTSSMSLRPSSNPETLSPSTSDNSTSHMPLLTSAHPTGGENITQVTPASISTHHVSTSSPAPRPGTTSQASGPGNSSTSTKPGEVNVTKGTPPQNATSPQAPSGQKTAVPTVTSTGGKANSTTGGKHTTGHGARTSTEPTTDYGGDSTTPRPRYNATTYLPPSTSSKLRPRWTFTSPPVTTAQATVPVPPTSQPRFSNLSMLVLQWASLAVLTLLLLLVMADCAFRRNLSTSHTYTTPPYDDAETYV | – | – | – | – | tumor formation / tumor outgrowth ([7]; cotton-top tamarins): inhibited tumor formation; serum neutralizing antibodies ([7]; subcutaneously with adjuvants (muramyl dipeptide or ISCOMs)): induced high levels of serum neutralizing antibodies
